Measurements taken from the NIST ThermoML archive (doi:10.1016/j.tca.2017.10.003).
Numbers after ± are expanded uncertainties.

Legend:
[1] = Molar enthalpy of transition or fusion; details: DSC
[2] = Crystal; DTA

In the case of `CCCCCCCCCCCCCCCCO` [1-hexadecanol], the “Molar enthalpy of transition or fusion” value ([1]; Crystal 2) is reported as 13.1 ± 0.813 kcal/mol and the Normal melting temperature [2] is reported as 48.00 ± 5 °C.
In the case of `CCCCCCCCCCCCCCCCCCO` [1-octadecanol], the “Molar enthalpy of transition or fusion” value ([1]; Crystal) is reported as 16.2 ± 1.03 kcal/mol and the Normal melting temperature [2] is reported as 54.00 ± 5 °C.
In the case of `CCCCCCCCCCCCCCO` [1-tetradecanol], the “Molar enthalpy of transition or fusion” value ([1]; Crystal) is reported as 12.3 ± 0.765 kcal/mol and the Normal melting temperature [2] is reported as 36.00 ± 5 °C.
In the case of `CCCCCCCC/C=C\CCCCCCCCO` [(Z)-9-octadecen-1-ol], the “Molar enthalpy of transition or fusion” value ([1]; Crystal) is reported as 8.41 ± 0.502 kcal/mol and the Normal melting temperature [2] is reported as -1.00 ± 5 °C.
In the case of `CCCCCCCCCCO` [decan-1-ol], the “Molar enthalpy of transition or fusion” value ([1]; Crystal) is reported as 7.79 ± 0.502 kcal/mol and the Normal melting temperature [2] is reported as 3.00 ± 5 °C.
With `CCCCCCCCCCOC(=O)OCCCCCCCCCC` [didecyl carbonate] the “Molar enthalpy of transition or fusion” value ([1]; Crystal) was 11.9 ± 0.741 kcal/mol and the Normal melting temperature [2] was -1.00 ± 6 °C.
For `CCCCCCCCCCCCOC(=O)OCCCCCCCCCCCC` [didodecyl carbonate], the “Molar enthalpy of transition or fusion” value ([1]; Crystal) was 16.6 ± 1.05 kcal/mol and the Normal melting temperature [2] was 21.00 ± 6 °C.
For `CCCCCCCCCCCCCCCCOC(=O)OCCCCCCCCCCCCCCCC` [dihexadecyl carbonate], the “Molar enthalpy of transition or fusion” value ([1]; Crystal) was 23.7 ± 1.46 kcal/mol and the Normal melting temperature [2] was 47.00 ± 6 °C.
In the case of `CCCCCCCCCCCCCCCCCCOC(=O)OCCCCCCCCCCCCCCCCCC` [dioctadecyl carbonate], the “Molar enthalpy of transition or fusion” value ([1]; Crystal) is reported as 24.3 ± 1.48 kcal/mol and the Normal melting temperature [2] is reported as 50.00 ± 6 °C.
With `CCCCCCCC/C=C\CCCCCCCCOC(=O)OCCCCCCCC/C=C\CCCCCCCC` [dioleyl carbonate] the “Molar enthalpy of transition or fusion” value ([1]; Crystal) was 13.5 ± 0.813 kcal/mol and the Normal melting temperature [2] was -4.00 ± 6 °C.
For `CCCCCCCCCCCCCCOC(=O)OCCCCCCCCCCCCCC` [ditetradecyl carbonate], the “Molar enthalpy of transition or fusion” value ([1]; Crystal) was 22.6 ± 1.41 kcal/mol and the Normal melting temperature [2] was 35.00 ± 6 °C.
In the case of `CCCCCCCCCCCCO` [dodecan-1-ol], the “Molar enthalpy of transition or fusion” value ([1]; Crystal) is reported as 8.33 ± 0.526 kcal/mol and the Normal melting temperature [2] is reported as 23.00 ± 5 °C.
